Source: PubChem BioAssay AID743308 (Sanford-Burnham Center for Chemical Genomics, 2014)

Molecular target: Low molecular weight phosphotyrosine protein phosphatase (Homo sapiens) (UniProt P24666)
Test: inhibition of human LMPTP enzyme activity – biochemical, absorbance, pNPP substrate, LMPTP-A isoform, set 2, orthogonal assay, dose response (AID 743308)
Conditions: recombinant LMPTP-A

Sequence of Low molecular weight phosphotyrosine protein phosphatase (Homo sapiens) (P24666 whole entry, looked up, canonical isoform): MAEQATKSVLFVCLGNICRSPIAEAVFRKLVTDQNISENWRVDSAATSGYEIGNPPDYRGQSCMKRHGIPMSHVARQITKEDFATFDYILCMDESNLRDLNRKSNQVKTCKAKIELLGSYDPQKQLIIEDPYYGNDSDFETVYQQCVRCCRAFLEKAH

COc1ccc(-c2cc(NCCCN3CCCCC3)c3ccccc3n2)cc1
IC50: 3.52 µM
